Measured values published in patent publication US20240218156A1, “PLASTICIZER, PLASTIC COMPOSITION, AND PLASTIC PRODUCT” (LARGAN MEDICAL CO., LTD., priority 2022, published 2024).

Key:
[1] = tested on: mouse lung fibroblast (L929 cell line); assay: Cell viability test (ISO10993-5, MTT assay); format: cell-based; conditions: for cell viability: L929, 24 hours, 37° C.
Excerpt: The 1st example is used as the experimental group to perform the cell viability test. Specifically, according to ISO10993-5 standard method, the mouse lung fibroblast (L929 cell line) is used as the test cell, and the composition of the test culture medium is 90% MEM culture medium, 10% fetal bovine serum (FBS) and additional 1% antibiotic (penicillin-streptomycin). Then, the ethanol with the final concentration of 0.1% is used as the solvent to dissolve the tested plasticizer in the test culture medium. The control group of the cell viability test is the test culture solution only added the ethanol with the final concentration of 0.1%. In the experimental group, the plasticizer of the 1st example with the concentration of 0.1 mM or 0.3 mM is added to the test culture solution, respectively, and the concentration of the ethanol in the test culture solution of the control group and the experimental group are the same, the test condition is the 37° C. environment containing 5% carbon dioxide placed for 24 hours. After the test finished, each group is tested with MTT assay, the detection wavelength is the optical density at 570 nm (OD570) and the optical density at 650 nm (OD650), and the cell viability is calculated accordingly. The formula for calculating the cell viability is: (the average value of OD570 and OD650 in the experimental group)/(the average value of three repetitions of (the average value of OD570 and OD650 in the control group))×100%. The cell viability is used to determine whether the group has the cytotoxicity, and when the cell viability is more than 70%, it is considered that this group is non-cytotoxic.

[2] = Pyrolysis temperature of the plasticizer; format: physicochemical
Protocol: According to the plasticizer of the present disclosure, when a pyrolysis temperature of the plasticizer is Pt, the following condition can be satisfied: 100° C.≤Pt. Therefore, it is favorable for stabilizing the structure of the plasticizer at the high temperature by the high pyrolysis temperature of the plasticizer. Furthermore, the following condition can be satisfied: 120° C.≤Pt. Furthermore, the following condition can be satisfied: 150° C.≤Pt. Furthermore, the following condition can be satisfied: 170° C.≤Pt. Furthermore, the following condition can be satisfied: 180° C.≤Pt.

Compound: CCC(CC)COC(=O)CC(N)C(=O)OCC(CC)CC (stereo not shown) [1st example, 1,4-bis(2-ethylbutyl) 2-aminobutanedioate]
- toxic to the cells ([1]; 0.3 mM): will not be toxic to the cells
- cell viability ([1]; plasticizer 0.1 mM): 99.10%
- cell viability ([1]; plasticizer 0.3 mM): 81.90%
- Pt (º C.) [2]: 200 º C.
